Melting point data for 45 molecules are collected here from US7767665B2, “1,3-benzothiazinone derivatives and use thereof” (Takeda Pharmaceutical Company Limited, priority 2001, dated 2010).

Structures can show the parent of a compound that is named as a salt.

With `Cc1cc(CCC(=O)OC(C)(C)C)nc(-c2nc(=O)c3ccccc3s2)c1` [Example 189, tert-Butyl 3-[4-methyl-6-(4-oxo-4H-1,3-benzothiazin-2-yl)-2-pyridyl]propanoate], the melting point was in the range of 168.5 to 169.3 °C.
The result for `Cc1cc(CCC(=O)OC(C)(C)C)nc(-c2nc(=O)c3ccc(Cl)cc3s2)c1` [Example 190, tert-Butyl 3-[6-(7-chloro-4-oxo-4H-1,3-benzothiazin-2-yl)-4-methyl-2-pyridyl]propanoate] reads 162.3 to 163 °C; that for `C[S+]([O-])c1nccc(-c2nc(=O)c3ccccc3s2)n1` (stereo not drawn) [Example 285, 2-[2-(Methylsulfinyl)-6-pyrimidinyl]-4H-1,3-benzothiazine-4-one], 250.5 to 252 °C.
As to `CNc1cccc(-c2nc(=O)c3ccccc3s2)n1` [Example 109, 2-(6-Methylamino-2-pyridyl)-4H-1,3-benzothiazine-4-one], the melting point lay in the range of 206.9 to 208 °C.
The result for `O=C(NC1CC1)c1ccc2c(=O)nc(-c3ccccn3)sc2c1` [Example 239, N-Cyclopropyl-4-oxo-2-(2-pyridyl)-4H-1,3-benzothiazine-7-carboxamide] reads 272.1 to 274.1 °C; that for `O=c1nc(-c2ccc[nH]2)sc2ccccc12` [Example 15, 2-(1H-Pyrrol-2-yl)-4H-1,3-benzothiazine-4-one], 202.4 to 203.2 °C; that for `O=c1nc(-c2cccc(S(=O)(=O)Cc3ccccc3)n2)sc2ccccc12` [Example 161, 2-[6-(Benzylsulfonyl)-2-pyridyl]-4H-1,3-benzothiazine-4-one], 217 to 218 °C.
Regarding `O=c1nc(-c2cccc(CSc3ccncc3)n2)sc2ccccc12` [Example 273, 2-{6-[(4-pyridylthio)methyl]-2-pyridyl}-4H-1,3-benzothiazine-4-one], the melting point lay within 181.9 to 182.5 °C.
On to `C[S+]([O-])c1cc(CCC(=O)O)cc(-c2nc(=O)c3ccccc3s2)n1` (stereo not drawn) [Example 344, 3-[2-(methylsulfinyl)-6-(4-oxo-4H-1,3-benzothiazin-2-yl)-4-pyridyl]propionic acid], for which the melting point lay within 265.5 to 266 °C.
As to `CCC(=O)N(C)c1cccc(-c2nc(=O)c3ccccc3s2)n1` [Example 114, N-Methyl-N-[6-(4-oxo-4H-1,3-benzothiazin-2-yl)-2-pyridyl]propanamide], the melting point fell in the range of 200.6 to 201.2 °C.
In the case of `O=c1nc(-c2cccc(-c3ccccc3)n2)sc2ccccc12` [Example 197, 2-(6-Phenyl-2-pyridyl)-4H-1,3-benzothiazine-4-one], the melting point was 195.4 to 197 °C.
On to `CS(=O)(=O)c1cccc(-c2nc(=O)c3ccccc3s2)n1` [Example 45, 2-(6-Methylsulfonyl-2-pyridyl)-4H-1,3-benzothiazine-4-one], for which the melting point was 238.2 to 239.5 °C (dec.).
In the case of `CCS(=O)(=O)Cc1cccc(-c2nc(=O)c3ccccc3s2)n1` [Example 251, 2-[6-[(Ethylsulfonyl)methyl]-2-pyridyl]-4H-1,3-benzothiazine-4-one], the melting point lay within 188.5 to 190 °C.
The molecule `O=c1nc(-c2cccc(S(=O)(=O)CCc3ccccc3)n2)sc2ccccc12` [Example 163, 2-[6-(2-Phenylethyl)sulfonyl-2-pyridyl]-4H-1,3-benzothiazine-4-one] had a melting point of 161.5 to 163.5 °C.
`CC(C)(C)OC(=O)COc1ccc2sc(-c3ccccn3)nc(=O)c2c1` [Example 122, tert-Butyl 2-[[4-oxo-2-(2-pyridyl)-4H-1,3-benzothiazin-6-yl]oxy]acetate]: the melting point was 183 to 184.1 °C.
For the molecule `Cl.O=c1nc(-c2cc(C3CCCN3)ccn2)sc2ccccc12` (stereo not drawn), the melting point lay in the range of 219.4 to 221.4 °C.
In the case of `CC(=O)NCc1cccc(-c2nc(=O)c3ccccc3s2)n1` [Example 204, N-[[6-(4-Oxo-4H-1,3-benzothiazin-2-yl)-2-pyridyl]methyl]ace tamide], the melting point was in the range of 199.2 to 200.4 °C.
Consider `O=c1nc(-c2cc(CCc3nnn[nH]3)ccn2)sc2ccccc12` [Example 316, 2-{4-[2-(1H-1,2,3,4-Tetrazol-5-yl)ethyl]-2-pyridyl}-4H-1,3-benzothiazine-4-one], for which the melting point is 250 °C (dec.).
Consider `CCCSc1cccc(-c2nc(=O)c3ccccc3s2)n1` [Example 59, 2-(6-Propylthio-2-pyridyl)-4H-1,3-benzothiazine-4-one], for which the melting point is 124.5 to 125.1 °C.
The value for `CC(C)COc1ccc2sc(-c3ccccn3)nc(=O)c2c1` [Example 117, 6-Isobutoxy-2-(2-pyridyl)-4H-1,3-benzothiazine-4-one] was 135.5 to 136.5 °C.
Molecule `O=c1nc(-c2cccc(Sc3ccncc3)n2)sc2ccccc12` [Example 274, 2-[6-(4-Pyridylthio)-2-pyridyl]-4H-1,3-benzothiazine-4-one] returned a melting point of 245.2 to 245.8 °C.
Take `C[S+]([O-])c1ccc(-c2nc(=O)c3ccccc3s2)cn1` (stereo not drawn) [Example 261, 2-[6-(Methylsulfinyl)-3-pyridyl]-4H-1,3-benzothiazine-4-one]: the melting point lay within 195 to 196.5 °C.
Take `O=c1nc(-c2cccc(CNS(=O)(=O)c3ccccc3)n2)sc2ccccc12` [Example 213, N-[[6-(4-Oxo-4H-1,3-benzothiazin-2-yl)-2-pyridyl]methyl]benzenesulfonamide]: the melting point lay in the range of 206.7 to 207.5 °C.
The value for `NCCc1cccc(-c2nc(=O)c3ccccc3s2)n1` (as salt: trifluoroacetic acid salt) [Example 220, 2-[6-(2-Aminoethyl)-2-pyridyl]-4H-1,3-benzothiazine-4-one trifluoroacetic acid salt] was 206.2 to 207.1 °C.
The value for `Cc1csc(-c2nc(=O)c3ccccc3s2)n1` [Example 349, 2-(4-Methyl-1,3-thiazol-2-yl)-4H-1,3-benzothiazin-4-one] was 209.6 to 210.7 °C; that for `O=C(O)CCOCCc1cccc(-c2nc(=O)c3ccccc3s2)n1` [Example 335, 3-[2-(6-(4-Oxo-4H-1,3-benzothiazin-2-yl)-2-pyridyl)ethoxy]propionic acid] was 236.6 to 236.7 °C; that for `CCN(CC)C(=O)c1ccc(-c2nc(=O)c3ccccc3s2)nc1` [Example 144, N,N-Diethyl-6-(4-oxo-4H-1,3-benzothiazin-2-yl)nicotinamide] was 193.2 to 193.3 °C.
The result for `C[S+]([O-])c1ccnc(-c2nc(=O)c3ccccc3s2)c1` (stereo not drawn) [Example 299, 2-[4-(Methylsulfinyl)-2-pyridyl]-4H-1,3-benzothiazine-4-one] reads 205 to 206 °C; that for `O=C(NCCc1ccnc(-c2nc(=O)c3ccccc3s2)c1)c1ccccc1` [Example 225, N-[2-[2-(4-Oxo-4H-1,3-benzothiazin-2-yl)-4-pyridyl]ethyl]benzamide], 216.8 to 219.3 °C.
Turning to `Cc1cc(C)c2sc(-c3cccc(CCCOCCC(=O)OC(C)(C)C)n3)nc(=O)c2c1` [Example 87], the melting point was in the range of 105.3 to 107.3 °C.
With `CCOP(=O)(Cc1cccc(-c2nc(=O)c3ccccc3s2)n1)OCC`, the melting point lay in the range of 115.5 to 116.5 °C.
With `O=c1nc(-c2cccc(-c3cccs3)n2)sc2ccccc12` [Example 193, 2-[6-(2-Thienyl)-2-pyridyl]-4H-1,3-benzothiazin-4-one], the melting point fell in the range of 222.2 to 223.4 °C.
With `CC(C)(C)OC(=O)CCc1cccc(-c2nc(=O)c3ccc(C(F)(F)F)cc3s2)n1` [Example 177, tert-Butyl 3-[6-(4-oxo-7-trifluoromethyl-4H-1,3-benzothiazin-2-yl)-2-pyridyl]propanoate], the melting point lay in the range of 148.5 to 149.4 °C.
Take `CSc1cncc(-c2nc(=O)c3ccccc3s2)n1` [Example 287, 2-[6-(Methylthio)-2-pyrazinyl]-4H-1,3-benzothiazine-4-one]: the melting point was 202.4 to 202.9 °C.
`O=c1nc(-c2cnc3ccccc3c2)sc2ccccc12` [Example 4, 2-(3-Quinolinyl)-4H-1,3-benzothiazine-4-one] came in with a melting point of 216 to 217 °C.
For `CC(=O)OCCCc1cccc(-c2nc(=O)c3ccccc3s2)n1` [Example 301, 3-[6-(4-Oxo-4H-1,3-benzothiazin-2-yl)-2-pyridyl]propyl acetate], the melting point fell in the range of 141.3 to 141.6 °C.
The value for `N#Cc1cc(CCC(=O)O)cc(-c2nc(=O)c3ccccc3s2)n1` [Example 356, 3-[2-Cyano-6-(4-oxo-4H-1,3-benzothiazin-2-yl)-4-pyridyl]propanoate] was 271 to 272.7 °C; that for `CSc1ccc(-c2nc(=O)c3ccccc3s2)cn1` [Example 171, 2-[6-(Methylthio)-3-pyridyl]-4H-1,3-benzothiazine-4-one] was 167.9 to 169.9 °C.
As to `CC(C)(C)OC(=O)CCc1ccnc(-c2nc(=O)c3ccc(F)cc3s2)c1` [Example 184, tert-Butyl 3-[2-(7-fluoro-4-oxo-4H-1,3-benzothiazin-2-yl)-4-pyridyl]propanoate], the melting point was in the range of 137.6 to 138.1 °C.
For the molecule `CC(=O)c1ccc(-c2nc(=O)c3ccccc3s2)nc1` [Example 145, 2-(5-Acetyl-2-pyridyl)-4H-1,3-benzothiazine-4-one], the melting point lay in the range of 276.3 to 276.7 °C.
`O=c1nc(-c2cc(-c3ccccc3)ccn2)sc2ccccc12` [Example 137, 2-(4-Phenyl-2-pyridyl)-4H-1,3-benzothiazine-4-one] returned a melting point of 164.4 to 164.7 °C.
For the molecule `CC(C)(C)OC(=O)NCc1cccc(-c2nc(=O)c3ccccc3s2)n1` [Example 202, tert-Butyl [6-(4-Oxo-4H-1,3-benzothiazin-2-yl)-2-pyridyl]methylcarbamate], the melting point lay in the range of 160 to 162.1 °C.
On to `NC(=O)CCc1ccc(-c2nc(=O)c3ccccc3s2)nc1` [Example 329, 3-[6-(4-Oxo-4H-1,3-benzothiazin-2-yl)-3-pyridyl]propanamide], for which the melting point is 247.5 to 247.8 °C.
The result for `Cc1cc(CCC(=O)O)cc(-c2nc(=O)c3ccccc3s2)n1` [Example 321, 3-[2-Methyl-6-(4-oxo-4H-1,3-benzothiazin-2-yl)-4-pyridyl]propionic acid] reads 233.2 to 234.7 °C; that for `O=c1nc(-c2ccc3c(n2)CCCC3)sc2ccccc12` [Example 139, 2-(5,6,7,8-Tetrahydro-2-quinolyl)-4H-1,3-benzothiazine-4-one], 232.3 to 232.8 °C.

Broadly, the melting point is the temperature, or range, at which the solid turns liquid.
